{
  "source": "paper PMC8685350",
  "about": "“Activation of the SARS-CoV-2 NSP14 3′–5′ exoribonuclease by NSP10 and response to antiviral inhibitors” (The Journal of Biological Chemistry, 2021)",
  "key": {"[1]": {"biological_target": "T1, NSP10/14 complex (Severe acute respiratory syndrome coronavirus 2, UniProt P0DTD1)", "T1 construct": "gene rep; full-length NSP14 and NSP10 (139 aa), mature chains of replicase polyprotein 1ab; N-terminal His-tags (pDEST527), E. coli Rosetta2; assembled in vitro, copurified on Mono S, near stoichiometric; with Non-structural protein 10", "assay": "biochemical"}, "[2]": {"biological_target": "T2, NSP14 (Severe acute respiratory syndrome coronavirus 2, UniProt P0DTD1)", "T2 construct": "gene rep; full-length NSP14, mature chain of replicase polyprotein 1ab; N-terminal His-tag (pDEST527), E. coli Rosetta2", "type": "binding"}, "[3]": {"biological_target": "T1, NSP10/14 complex", "type": "binding"}},
  "data": [
    {"smiles": "Nc1ncnc2c1ncn2[C@@H]1O[C@H](CSCC[C@H](N)C(=O)O)[C@@H](O)[C@H]1O", "note": "[S-adenosylhomocysteine]", "values": [
      {"measurement": "EC50", "setting": "[1]", "value": "25 ± 9", "unit": "µM"},
      {"measurement": "Tm at 40 μM SAH (control Tm 43.1 ± 0.2 °C)", "setting": "[2]", "value": "48.5 ± 0.17", "unit": "°C"},
      {"measurement": "Tm at 400 μM SAH", "setting": "[3]", "value": "48.2 ± 0.2", "unit": "°C"}
    ]}
  ]
}
